Patent US20150025154A1, “OPHTHALMIC COMPOSITION” (ROHTO PHARMACEUTICAL CO., LTD., priority 2012, published 2015)

Assays:
Type in all cases: physicochemical
[1] = Residual ratio of GGA in eye drops held in various plastic or glass containers, 40° C., 75% RH, 2 hours; details: Table 4, various container materials
Experimental: (§1) In accordance with the measurement conditions for the elution test described in PFSB/ELD Notification No. 0412007 “teprenone 100 mg/g fine granule”, the GGA concentration of each eye drop was determined from the area value of the 5Z-mono-cis form (Ac) and the area value of the all-trans form (At) using Japanese pharmacopoeia “teprenone reference standard (all-trans form:5Z-mono-cis form=about 6:4 (weight ratio), Pharmaceutical and Medical Device Regulatory Science Society of Japan)” or teprenone (Wako Pure Chemical Industries) as a reference standard under the HPLC measurement conditions described below. For the eye drop containing teprenone (all-trans form:5Z-mono-cis form=3:2 (weight ratio)), the GGA content was calculated by summing the amounts of the all-trans form and the 5Z-mono-cis form. […]
Five mL of each of the eye drops was poured into various plastic or glass containers (volume: 10 to 15 mL) with a glass volumetric pipette and the containers were sealed. […] The all-trans form content (g/100 mL) in each of the eye drops was quantified under the HPLC conditions described above immediately after the production and after being left to stand for a predetermined period of time, and the residual ratio (%) was calculated.

[2] = Test for residual ratio of GGA No. 2: eye drops in LDPE or HDPE eye drop containers, 40° C., 75% RH; details: Table 6, LDPE and HDPE eye drop containers
Experimental: To a surfactant (POE castor oil and POE hydrogenated castor oil 60) warmed to 65° C., the all-trans form and optionally ascorbyl tetraisopalmitate were added and dissolved under stirring in a hot water bath at 65° C. for 2 minutes. Water at 65° C. was added and each buffer was added under stirring to give a homogeneous solution. The pH and osmotic pressure were adjusted with hydrochloric acid or sodium hydroxide.
Ten mL of each of the thus obtained eye drops was poured into a 13 mL eye drop container (material: low density polyethylene or high density polyethylene; shape: the same as that of the container for Namida Rohto Dry Eye (trade name) (Rohto Pharmaceutical)) with a glass volumetric pipette and the container was sealed.
For these eye drops, the stability test was performed by leaving them to stand in the upright position at 40° C., 75% RH for 2 hours, 8 hours, and 24 hours. The all-trans form content (g/100 mL) in each of the eye drops was quantified by HPLC immediately after the production and after being left to stand for a predetermined period of time, and the residual ratio (%) was calculated.

[3] = Test for residual ratio of GGA No. 1: storage of eye drops in glass or PET containers; details: Tables 1 to 3, glass and PET containers
Experimental: as §1
A polyethylene terephthalate container (8 mL) (the container for Rohto Dryaid EX, Rohto Pharmaceutical) was completely filled with each of the eye drops in an aseptic manner. […] The teprenone or all-trans form content (g/100 mL) in each of the eye drops was quantified under the HPLC conditions described above immediately after the production and after being left to stand for a predetermined period of time, and the residual ratio (%) was calculated. […]

## CCCCCCCCCCCCCCCC(=O)OC/C=C(C)/C=C/C=C(C)/C=C/C1=C(C)CCCC1(C)C [retinol palmitate]
[1]
  Effect of added fat-soluble antioxidant on loss of the GGA content: greatly reduced the loss of the GGA content

## CCCCCCCCC(CCCCCC)C(=O)OC[C@H](OC(=O)C(CCCCCC)CCCCCCCC)[C@H]1OC(=O)C(OC(=O)C(CCCCCC)CCCCCCCC)=C1OC(=O)C(CCCCCC)CCCCCCCC (stereo partly drawn) [ascorbyl tetraisopalmitate]
[2]
  Effect of added fat-soluble antioxidant on adsorption of GGA to the container wall: reduced adsorption of GGA to the wall of the containers in a dose-dependent manner

## Cc1cc(C(C)(C)C)c(O)c(C(C)(C)C)c1 [BHT, butylhydroxytoluene]
[3]
  Effect of added fat-soluble antioxidant on loss of the GGA content: greatly reduced the loss of the GGA content
